US9108930B2, “N1- and N2-carbamoyl-1,2,3-triazole serine hydrolase inhibitors and methods” (The Scripps Research Institute, priority 2011, dated 2015)
Several values for one entry are separate records, joined by “and”; a condition that tells them apart may be missing. Equal values may be shown once. Values belong to the compound of their own block, whether it stands above or below them.

Key:
[1] = system: serine hydrolases in mouse brain proteome; assay: Selectivity profile by competitive ABPP (mouse brain proteome), DAGL series; type: biochemical
[2] = biological target: T1, DAGLB (Mus musculus, UniProt Q91WC9); assay: Gel-based ABPP assay against recombinant DAGLB (HEK293T-DAGLB lysates); type: biochemical; parameters: Full-length cDNAs encoding serine hydrolases were purchased from Open Biosystems; V5; host or cells: HEK293T; details: for activity against DAGLB: recombinant
T1 sequence (Q91WC9 1-669): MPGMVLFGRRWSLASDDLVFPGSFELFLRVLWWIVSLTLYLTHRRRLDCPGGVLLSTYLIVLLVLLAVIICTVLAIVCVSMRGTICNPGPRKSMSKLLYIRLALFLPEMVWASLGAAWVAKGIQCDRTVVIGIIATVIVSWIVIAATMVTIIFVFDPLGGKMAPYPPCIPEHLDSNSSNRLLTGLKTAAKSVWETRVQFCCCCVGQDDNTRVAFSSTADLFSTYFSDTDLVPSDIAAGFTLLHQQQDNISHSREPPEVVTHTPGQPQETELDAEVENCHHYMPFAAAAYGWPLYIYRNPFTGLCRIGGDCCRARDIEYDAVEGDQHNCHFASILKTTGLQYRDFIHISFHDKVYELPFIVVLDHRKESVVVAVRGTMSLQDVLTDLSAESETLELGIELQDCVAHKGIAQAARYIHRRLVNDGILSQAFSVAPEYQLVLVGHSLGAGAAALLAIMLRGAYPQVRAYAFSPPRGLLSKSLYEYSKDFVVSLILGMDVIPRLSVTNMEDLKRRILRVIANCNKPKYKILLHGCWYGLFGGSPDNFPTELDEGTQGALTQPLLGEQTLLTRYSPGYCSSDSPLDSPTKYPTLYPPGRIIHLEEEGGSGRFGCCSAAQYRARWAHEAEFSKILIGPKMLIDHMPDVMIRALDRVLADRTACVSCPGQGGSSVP

[3] = biological target: T2, ABHD11 (Mus musculus, UniProt Q8K4F5); assay: Gel-based competitive ABPP, mouse T-cell proteome in vitro; type: biochemical; details: for IC50: in vitro, 30 minutes at 37° C.
T2 sequence (Q8K4F5 35-307): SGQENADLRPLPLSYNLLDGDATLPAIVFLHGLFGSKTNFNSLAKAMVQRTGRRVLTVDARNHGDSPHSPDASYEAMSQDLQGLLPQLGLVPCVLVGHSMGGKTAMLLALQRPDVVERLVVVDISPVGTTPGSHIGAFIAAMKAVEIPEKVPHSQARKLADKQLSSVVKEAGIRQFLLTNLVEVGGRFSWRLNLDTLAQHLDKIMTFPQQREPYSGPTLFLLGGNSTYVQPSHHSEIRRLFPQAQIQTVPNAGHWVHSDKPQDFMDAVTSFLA

[4] = system: serine hydrolases (SHs) in mouse T-cell proteomes; assay: Gel-based competitive ABPP, mouse T-cell proteomes in vitro, SH reactivity profile; type: biochemical; details: 100 nM, 30 minutes at 37° C.
[5] = biological target: T2, ABHD11; assay: In situ inhibition in cultured mouse T-cells, gel-based competitive ABPP; type: cell-based; details: 4 h at 37° C.; read-out: potency of ABHD11 inactivation in cultured T-cells
[6] = biological target: T2, ABHD11; assay: ABPP-SILAC in living mouse T-cells; details: 3 nM inhibitor, 4 h
[7] = biological target: T3, DAGLA (Mus musculus, UniProt Q6WQJ1); assay: Activity against recombinant DAGLA; type: biochemical
T3 construct: Full-length cDNAs encoding serine hydrolases were purchased from Open Biosystems; V5; host or cells: HEK293T

[8] = system: serine hydrolases in mouse tissues; assay: In vivo ABPP analysis of tissues from KLH25-treated mice; details: 25 mg/kg in PEG300, i.p., about 4 hours
Method: To assess the degree to which KLH25 is active in vivo, mice were treated with the compound for about 4 hours (25 mg/kg in PEG300, administered intraperitoneally, i.p.), sacrificed, and tissues were harvested for ABPP analysis.

[9] = biological target: T4, APEH (Mus musculus, UniProt Q8R146); assay: Gel-based competitive ABPP, mouse T-cell proteome in vitro; type: biochemical; details: IC50 for APEH, in vitro, 30 minutes at 37° C., mouse
T4 sequence (Q8R146 1-732): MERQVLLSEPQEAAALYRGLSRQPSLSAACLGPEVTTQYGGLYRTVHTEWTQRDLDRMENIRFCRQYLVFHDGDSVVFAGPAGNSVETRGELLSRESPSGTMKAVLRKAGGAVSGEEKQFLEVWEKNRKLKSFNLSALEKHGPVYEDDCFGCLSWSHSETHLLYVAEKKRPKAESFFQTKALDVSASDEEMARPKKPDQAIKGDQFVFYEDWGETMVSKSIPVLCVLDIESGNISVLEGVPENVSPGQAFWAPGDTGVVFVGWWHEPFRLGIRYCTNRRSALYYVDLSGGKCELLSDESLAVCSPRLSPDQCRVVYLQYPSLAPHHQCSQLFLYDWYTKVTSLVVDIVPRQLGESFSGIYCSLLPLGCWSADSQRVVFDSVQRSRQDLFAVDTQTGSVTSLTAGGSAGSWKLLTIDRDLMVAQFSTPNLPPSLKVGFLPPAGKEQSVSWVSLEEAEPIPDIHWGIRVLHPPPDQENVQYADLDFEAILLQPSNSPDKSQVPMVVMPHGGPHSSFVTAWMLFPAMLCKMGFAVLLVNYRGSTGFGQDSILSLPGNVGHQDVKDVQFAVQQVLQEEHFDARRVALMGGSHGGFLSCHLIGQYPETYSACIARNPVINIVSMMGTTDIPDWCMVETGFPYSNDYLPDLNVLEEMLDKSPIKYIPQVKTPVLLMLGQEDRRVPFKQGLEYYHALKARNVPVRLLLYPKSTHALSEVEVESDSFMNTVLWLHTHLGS
Method: The carbamoyl triazole regioisomers were separated by gel chromatography and used for subsequent experiments. […] The compounds were screened at concentrations of 10 and 100 nM in mouse T-cell proteomes (FIG. 3e and FIG. 12).
Gel-based competitive ABPP experiments were performed as described previously. For competitive ABPP with FP-rhodamine, proteomes (1 mg/mL in PBS) were treated with FP-rhodamine (2 μM final concentration) in a […] total reaction volume. After 30 minutes at 25° C., the reactions were quenched with 2×SDS-PAGE loading buffer.
Proteomes were incubated with inhibitors for 30 minutes at 37° C. (in vitro) or for 4 h at 37° C. (in situ) at the indicated concentrations (n=3) prior to FP-rhodamine labeling. After SDS-PAGE and in-gel visualization, the percentage enzymatic activity remaining was determined by measuring the integrated optical intensity of the bands using IMAGER® software. IC50 values were determined from a dose-response curve generated using PRISM® software (GraphPad).

[10] = biological target: PAFAH2 (Mus musculus, UniProt Q8VDG7); assay: as above; type: biochemical; details: 30 minutes at 37° C.
Sequence of PAFAH2 (Q8VDG7 whole entry): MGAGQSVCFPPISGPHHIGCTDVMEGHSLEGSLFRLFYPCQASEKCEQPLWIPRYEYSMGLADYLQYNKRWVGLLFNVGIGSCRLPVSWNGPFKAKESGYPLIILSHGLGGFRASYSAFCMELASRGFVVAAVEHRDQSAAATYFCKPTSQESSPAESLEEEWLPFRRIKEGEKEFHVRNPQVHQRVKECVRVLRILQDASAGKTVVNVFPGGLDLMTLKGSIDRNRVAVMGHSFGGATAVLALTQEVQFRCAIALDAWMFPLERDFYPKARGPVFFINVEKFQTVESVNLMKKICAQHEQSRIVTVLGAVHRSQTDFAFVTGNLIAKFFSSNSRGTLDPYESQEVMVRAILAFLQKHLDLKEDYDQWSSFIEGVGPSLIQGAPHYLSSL

T3 sequence (Q6WQJ1 whole entry): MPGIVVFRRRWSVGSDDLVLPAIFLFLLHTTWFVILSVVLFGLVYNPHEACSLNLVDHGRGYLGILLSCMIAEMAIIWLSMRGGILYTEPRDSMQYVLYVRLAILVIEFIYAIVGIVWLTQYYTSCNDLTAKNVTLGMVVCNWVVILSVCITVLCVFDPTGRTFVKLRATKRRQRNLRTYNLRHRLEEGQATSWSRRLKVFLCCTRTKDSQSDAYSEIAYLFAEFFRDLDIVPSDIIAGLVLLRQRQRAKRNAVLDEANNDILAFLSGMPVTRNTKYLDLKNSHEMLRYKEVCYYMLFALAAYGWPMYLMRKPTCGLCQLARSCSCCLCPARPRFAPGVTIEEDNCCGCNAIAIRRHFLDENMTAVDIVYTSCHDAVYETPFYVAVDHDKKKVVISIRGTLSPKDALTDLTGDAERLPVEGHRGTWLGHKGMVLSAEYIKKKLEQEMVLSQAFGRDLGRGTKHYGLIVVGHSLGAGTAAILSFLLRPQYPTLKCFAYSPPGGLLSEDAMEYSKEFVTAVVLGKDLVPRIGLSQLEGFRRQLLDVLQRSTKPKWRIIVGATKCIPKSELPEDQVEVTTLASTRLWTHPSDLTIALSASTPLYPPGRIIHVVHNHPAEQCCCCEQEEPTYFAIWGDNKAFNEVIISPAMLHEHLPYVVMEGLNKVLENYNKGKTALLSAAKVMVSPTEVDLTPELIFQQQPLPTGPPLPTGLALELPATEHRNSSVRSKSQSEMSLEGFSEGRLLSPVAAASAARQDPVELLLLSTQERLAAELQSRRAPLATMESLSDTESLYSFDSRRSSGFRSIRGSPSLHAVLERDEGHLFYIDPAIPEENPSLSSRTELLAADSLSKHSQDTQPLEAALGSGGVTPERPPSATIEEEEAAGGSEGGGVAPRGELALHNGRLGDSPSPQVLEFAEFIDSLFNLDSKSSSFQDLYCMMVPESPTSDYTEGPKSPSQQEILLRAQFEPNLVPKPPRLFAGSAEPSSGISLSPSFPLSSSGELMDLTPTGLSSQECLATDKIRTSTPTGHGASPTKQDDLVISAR

SMILES: O=C(N1CCCCC1Cc1ccccc1)n1cc(-c2ccc(OC(F)(F)F)cc2)nn1 (stereo not shown) [KLH25]
- off-target activity / selectivity against other serine hydrolases [1]: negligible activity against LYPLA1, LYPLA2, and PAFAH2
- activity against DAGLA [7]: exhibited activity against both DAGL enzymes
- inhibition of ABHD6 and FAAH in vivo [8]: Potent inhibition of ABHD6 and FAAH
- inhibition of endogenous DAGLA or DAGLB in vivo [8]: No inhibition of protein bands corresponding to endogenous DAGLA or DAGLB
- activity against DAGLB [2]: significantly more potent against DAGLB in comparison to AA43-2

SMILES: CC(C)CC(O)(CC(C)C)c1cn(C(=O)N2CCCC2)nn1 [N1 AA74-1]
- IC50 [9]: ~8 nM

SMILES: O=C(N1CCCC1)n1ncc(-c2ccc(Br)cc2)n1 [N2 AA80-1]
- IC50 [10]: 5 nM

SMILES: CCCCCCCCCCC[C@@H](C[C@@H]1OC(=O)[C@H]1CCCCCC)OC(=O)[C@H](CC(C)C)NC=O [THL, tetrahydrolipstatin, reference compound]
- activity against DAGLB [2]: blocked

Second part, led by results:

- IC50 [2]: ~200 nM
SMILES: O=C(N1CCCCC1Cc1ccccc1)n1cc(C(O)(c2ccccc2)c2ccccc2)nn1 (stereo not shown) [AA43-2]
- off-target activity / selectivity against other serine hydrolases [1]: off-target activity against several other serine hydrolases, notably ABHD6, KIAA1363, and LYPLA1/2
- activity against DAGLB [2]: completely blocked probe-labeling of DAGLB

- inhibition of ABHD11 ([3]; 10 nM): complete inactivation
- IC50 [3]: 1 nM
- IC50 [5]: 0.14 to 0.17 nM
- ABHD11 activity blocked [6]: > 95% and > 97%
SMILES: COCC1CCCCN1C(=O)n1ncc(C(O)(c2ccccc2)c2ccccc2)n1 (stereo not shown) [AA44-2]
- cross-reactivity with other SHs [4]: no cross-reactivity with APEH, PAFAH2, or other SHs

- potency against DAGLB relative to KT117 [2]: greater than 5 fold
SMILES: O=C(N1CCCCC1Cc1ccccc1)n1cc(-c2ccc(Br)cc2)nn1 (stereo not shown) [KT116]

- IC50 [3]: ~58 nM
SMILES: COCC1CCCCN1C(=O)n1cc(C(O)(c2ccccc2)c2ccccc2)nn1 (stereo not shown) [N1 AA44-2]

- IC50 [10]: 11 nM
SMILES: O=C(N1CCCC1)n1cc(-c2ccc(Br)cc2)nn1 [N1 AA80-1]
